Source: PubChem BioAssay (NCI)
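1) Cells in 96-well plates. 2) Compound, 48 h, 5 concentrations. 3) Linear interpolation between surrounding doses. 4) Unreached endpoint = highest concentration. GI50 is the concentration that inhibits growth by half. TGI denotes the concentration required for complete inhibition of growth.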

What was measured:
Test in all cases: DTP human tumour cell line panel, 48 h
[1] = test system: 786-0 renal
[2] = test system: EKVX NSCLC
[3] = test system: HCT-116 colon
[4] = test system: HCT-15 colon
[5] = test system: HL-60(TB) leukemia
[6] = test system: IGROV1 ovarian
[7] = test system: SK-MEL-5 melanoma
[8] = test system: SK-OV-3 ovarian
[9] = test system: SR leukemia
[10] = test system: SK-MEL-28 melanoma

COc1ccc2c(NCCCCCCNc3c4ccccc4nc4cc(OC)ccc34)c3ccccc3nc2c1
TGI [1]: 1.3 µM | TGI [2]: 2.53 µM | TGI [3]: 0.333 µM | TGI [4]: 9.36 µM | TGI [5]: 0.379 µM | TGI [6]: 0.339 µM | TGI [7]: 5.76 µM | TGI [8]: 2.04 µM | TGI [9]: 1.54 µM

COc1cccc2c(=O)c3c(sc12)c(NCCCNCCO)nc1ccccc13
GI50 [1]: 1.75 µM | TGI [1]: 3.25 µM | GI50 [2]: 1.52 µM | TGI [2]: 3.05 µM | GI50 [3]: 1.41 µM | TGI [3]: 2.74 µM | GI50 [4]: 1.51 µM | TGI [4]: 3.02 µM | GI50 [5]: 1.73 µM | TGI [5]: 3.5 µM | GI50 [6]: 1.16 µM | TGI [6]: 2.58 µM | GI50 [10]: 1.9 µM | TGI [10]: 3.46 µM | GI50 [7]: 1.69 µM | TGI [7]: 3.11 µM | GI50 [8]: 3.39 µM | TGI [8]: 19.4 µM | GI50 [9]: 1.45 µM | TGI [9]: 3.83 µM

CC(C)[O-].CC(C)[O-].CN(CCN(C)Cc1cc(F)cc(F)c1[O-])Cc1cc(F)cc(F)c1[O-].[Ti+4]
GI50 [1]: 1.48 µM | TGI [1]: 5.7 µM | GI50 [2]: 1.31 µM | TGI [2]: 10 µM | GI50 [3]: 0.792 µM | TGI [3]: 4.86 µM | GI50 [4]: 0.526 µM | TGI [4]: 15.1 µM | GI50 [5]: 1.51 µM | TGI [5]: > 40.8 µM | GI50 [6]: 0.688 µM | TGI [6]: 2.47 µM | GI50 [10]: 0.692 µM | TGI [10]: 2.17 µM | GI50 [7]: 0.467 µM | TGI [7]: 1.67 µM | GI50 [8]: 0.634 µM | TGI [8]: 9.09 µM | GI50 [9]: 0.512 µM

COc1ccc(-c2c(C3=NCCCN3)nnn2-c2ccc([N+](=O)[O-])cc2)cc1
TGI [1]: > 100 µM | TGI [2]: > 100 µM | TGI [3]: > 100 µM | TGI [4]: > 100 µM | TGI [5]: > 100 µM | TGI [6]: > 100 µM | TGI [10]: > 100 µM | TGI [7]: > 100 µM | TGI [8]: > 100 µM | TGI [9]: > 100 µM

O=C(c1cccs1)C1NO[N+]([O-])=C1c1cccs1 (stereo not drawn)
GI50 [1]: 2.01 µM | TGI [1]: 3.88 µM | GI50 [2]: 3.71 µM | TGI [2]: 10.9 µM | GI50 [3]: 3.03 µM | TGI [3]: 10.2 µM | GI50 [4]: 3.43 µM | TGI [4]: 14.7 µM | GI50 [6]: 1.75 µM | TGI [6]: 3.72 µM | GI50 [10]: 2.52 µM | TGI [10]: 6.8 µM | GI50 [7]: 16.2 µM | TGI [7]: 31 µM | GI50 [8]: 18.6 µM | TGI [8]: 32.8 µM | GI50 [9]: 2.08 µM | TGI [9]: 4.73 µM

CCN(CC)c1ccc(/C=C/C2=[N+](C)c3ccccc3C2(C)C)c(C)c1
GI50 [1]: 0.0941 µM | TGI [1]: 1.88 µM | GI50 [2]: 0.0466 µM | TGI [2]: 7.86 µM | GI50 [3]: < 0.02 µM | TGI [3]: 3.82 µM | GI50 [4]: 0.321 µM | TGI [4]: 10.9 µM | GI50 [5]: 0.0367 µM | TGI [5]: 0.138 µM | GI50 [6]: 0.117 µM | TGI [6]: 11.4 µM | GI50 [10]: 0.151 µM | TGI [10]: 2.73 µM | GI50 [7]: 0.0335 µM | TGI [7]: 0.0854 µM | GI50 [8]: 0.0546 µM | TGI [8]: 0.21 µM | GI50 [9]: 0.0275 µM | TGI [9]: 1.71 µM

N#Cc1c(-c2ccco2)cc(-c2ccccc2)[nH]c1=O
TGI [1]: > 100 µM | TGI [2]: > 100 µM | TGI [3]: > 100 µM | TGI [4]: > 100 µM | TGI [5]: > 100 µM | TGI [6]: > 100 µM | TGI [10]: > 100 µM | TGI [7]: > 100 µM | TGI [8]: > 100 µM | TGI [9]: > 100 µM

CCNCCNc1cc(-c2ccc(C#N)cc2)c(C#N)c2nc3ccccc3n12
GI50 [1]: 2.2 µM | TGI [1]: 7.46 µM | GI50 [2]: 4.75 µM | TGI [2]: 19.3 µM | GI50 [3]: 1.5 µM | TGI [3]: 2.94 µM | GI50 [4]: 2.81 µM | TGI [4]: 11 µM | GI50 [5]: 1.87 µM | TGI [5]: 4.35 µM | GI50 [6]: 4.53 µM | TGI [6]: 18 µM | GI50 [10]: 1.86 µM | TGI [10]: 3.72 µM | GI50 [7]: 2.28 µM | TGI [7]: 5.67 µM | GI50 [8]: 3.8 µM | TGI [8]: 14.8 µM | GI50 [9]: 2.59 µM | TGI [9]: 6.74 µM

O=C(Cl)C1=C(c2ccccc2)C1c1ccccc1 (stereo not drawn)
TGI [1]: > 100 µM | TGI [2]: > 100 µM | TGI [3]: > 100 µM | TGI [4]: > 100 µM | TGI [5]: > 100 µM | TGI [6]: > 100 µM | TGI [10]: > 100 µM | TGI [7]: > 100 µM | TGI [8]: > 100 µM | TGI [9]: > 100 µM

CCOC(=O)c1c(SCCN2CCOCC2)n(-c2ccccc2)c(=S)n(-c2ccccc2)c1=O
TGI [1]: 46 µM | TGI [4]: 45.7 µM | TGI [5]: 49.2 µM | TGI [6]: > 100 µM | TGI [10]: 53.8 µM | TGI [7]: 90.1 µM | TGI [9]: 48.2 µM

O=C(NCCN1CCNCC1)c1ccc(Nc2nc3ccccc3c3occc23)cc1
GI50 [1]: 8.06 µM | TGI [1]: 21.6 µM | GI50 [2]: 9.45 µM | TGI [2]: 27.2 µM | GI50 [3]: 4.11 µM | TGI [3]: 15.8 µM | GI50 [4]: 20 µM | TGI [4]: 37.9 µM | GI50 [5]: 17.6 µM | TGI [5]: 33.5 µM | GI50 [6]: 1.97 µM | TGI [6]: 15.1 µM | GI50 [10]: 2.57 µM | TGI [10]: 8.45 µM | GI50 [7]: 3.39 µM | TGI [7]: 13.7 µM | GI50 [8]: 19.3 µM | TGI [8]: 47.5 µM | GI50 [9]: 25 µM | TGI [9]: 43.8 µM
